The values below come from patent US9695123B2, “Microbiocides” (Syngenta Participations AG, priority 2013, dated 2017).

Series [1] concerns Blumeria graminis f. Sp. Tritici (Erysiphe graminis f. Sp. Tritici). Kind of series: Blumeria graminis f. sp. tritici / wheat / leaf disc preventative (powdery mildew on wheat). The series is classed as in vivo. The settings on record: foliar, wheat leaf disc cv. Kanzler, inoculated 1 day after application, assessed 6-8 days after application, read-out: disease control. As to the method:
Fungicidal Activity Against Blumeria graminis f. Sp. Tritici (Erysiphe graminis f. Sp. Tritici)/Wheat/Leaf Disc Preventative (Powdery Mildew on Wheat)
Wheat leaf segments cv. Kanzler were placed on agar in a multiwell plate (24-well format) and sprayed with the formulated test compound diluted in water. The leaf disks were inoculated by shaking powdery mildew infected plants above the test plates 1 day after application. The inoculated leaf disks were incubated at 20° C. and 60% rh under a light regime of 24 h darkness followed by 12 h light/12 h darkness in a climate chamber and the activity of a compound was assessed as percent disease control compared to untreated when an appropriate level of disease damage appears on untreated check leaf segments (6-8 days after application).

For series [2], the system named is Puccinia recondita f. Sp. Tritici. Nature of the series: Puccinia recondita f. sp. tritici / wheat / leaf disc curative (brown rust). It counts as in vivo. The settings on record: foliar, 192 h, applied one day after inoculation, assessed 8 dpi, read-out: disease control. How it is done:
Fungicidal Activity Against Puccinia recondita f. Sp. Tritici/Wheat/Leaf Disc Curative (Brown Rust) Wheat leaf segments are placed on agar in multiwell plates (24-well format). The leaf disks are then inoculated with a spore suspension of the fungus. One day after inoculation the test solution is applied. After appropriate incubation the activity of a compound is assessed 8 dpi (days after inoculation) as curative fungicidal activity. Dose range: 200-22 ppm.

Series [3] concerns Botryotinia fuckeliana (Botrytis cinerea). Nature of the series: Botryotinia fuckeliana (Botrytis cinerea) / liquid culture (gray mould). It counts as cell-based. The settings on record: 72 h, liquid culture (Vogels broth), inhibition of growth photometrically 3-4 days after application, read-out: disease control. How it is done:
Fungicidal Activity Against Botryotinia fuckeliana (Botrytis cinerea)/Liquid Culture (Gray Mould) Conidia of the fungus from cryogenic storage were directly mixed into nutrient broth (Vogels broth). After placing a (DMSO) solution of test compound into a microtiter plate (96-well format), the nutrient broth containing the fungal spores was added. The test plates were incubated at 24° C. and the inhibition of growth was determined photometrically 3-4 days after application.

In series [4] the test system is Mycosphaerella arachidis (Cercospora arachidicola). Nature of the series: Mycosphaerella arachidis (Cercospora arachidicola) / liquid culture (early leaf spot). The settings on record: 96 h, liquid culture (PDB), inhibition of growth photometrically 4-5 days after application, read-out: disease control. The series is classed as cell-based. As to the method:
Fungicidal Activity Against Mycosphaerella arachidis (Cercospora arachidicola)/Liquid Culture (Early Leaf Spot) Conidia of the fungus from cryogenic storage were directly mixed into nutrient broth (PDB potato dextrose broth). After placing a (DMSO) solution of test compound into a microtiter plate (96-well format), the nutrient broth containing the fungal spores was added. The test plates were incubated at 24° C. and the inhibition of growth was determined photometrically 4-5 days after application.

The test system of series [5] is Mycosphaerella graminicola (Septoria tritici). Kind of series: Mycosphaerella graminicola (Septoria tritici) / liquid culture (Septoria blotch). It counts as cell-based. The settings on record: Zymoseptoria tritici, 96 h, liquid culture (PDB), inhibition of growth photometrically 4-5 days after application, read-out: disease control. As to the method: Fungicidal Activity Against Mycosphaerella graminicola (Septoria tritici)/Liquid Culture (Septoria Blotch) Conidia of the fungus from cryogenic storage were directly mixed into nutrient broth (PDB potato dextrose broth). After placing a (DMSO) solution of test compound into a microtiter plate (96-well format), the nutrient broth containing the fungal spores was added. The test plates were incubated at 24° C. and the inhibition of growth was determined photometrically 4-5 days after application.

A further series has as its system Gaeumannomyces graminis. Nature of the series: Gaeumannomyces graminis / liquid culture (take-all of cereals). It counts as cell-based. The conditions noted are these: 96 h, liquid culture (PDB), inhibition of growth photometrically 4-5 days after application, read-out: disease control. As to the method: Fungicidal Activity Against Gaeumannomyces graminis/Liquid Culture (Take-all of Cereals) Mycelial fragments of the fungus from cryogenic storage were directly mixed into nutrient broth (PDB potato dextrose broth). After placing a (DMSO) solution of test compound into a microtiter plate (96-well format), the nutrient broth containing the fungal spores is added. The test plates were incubated at 24° C. and the inhibition of growth was determined photometrically 4-5 days after application.

The subject of a further series is Fusarium culmorum. Nature of the series: Fusarium culmorum / liquid culture (root rot). It counts as cell-based. The conditions noted are these: liquid culture (PDB), inhibition of growth photometrically after 48 hrs, read-out: disease control. As to the method:
Fungicidal Activity Against Fusarium culmorum/Liquid Culture (Root Rot)
Conidia of the fungus from cryogenic storage were directly mixed into nutrient broth (PDB potato dextrose broth). After placing a (DMSO) solution of the test compounds into a microtiter plate (96-well format) the nutrient broth containing the fungal spores was added. The test plates were incubated at 24 C and the inhibition of growth was determined photometrically after 48 hrs.

Series [6] deals with Puccinia recondite f. Sp. Tritici. Nature of the series: Puccinia recondita f. sp. tritici / wheat / leaf disc preventative (brown rust). The series is classed as in vivo. The conditions noted are these: foliar, wheat leaf disc cv. Kanzler, inoculated 1 day after application, assessed 7-9 days after application, read-out: disease control. As to the method:
Fungicidal Activity Against Puccinia recondite f. Sp. Tritici/Wheat/Leaf Disc Preventative (Brown Rust) Wheat leaf segments cv. Kanzler were placed on agar in multiwell plates (24-well format) and sprayed with the formulated test compound diluted in water. The leaf disks were inoculated with a spore suspension of the fungus 1 day after application. The inoculated leaf segments were incubated at 19° C. and 75% rh under a light regime of 12 h light/12 h darkness in a climate cabinet and the activity of a compound was assessed as percent disease control compared to untreated when an appropriate level of disease damage appears in untreated check leaf segments (7-9 days after application).

Each structure is given as a SMILES string.

The melting point is the temperature of the solid-liquid transition.

In the case of `N#CC(Cc1cccnc1)c1ccc(C#CC2CC2)cc1` (centres unmarked) [Compound 1], the pest or weed control at 200 ppm in [1] and in series [2] was at least 80% throughout. In addition, the inhibition of growth at 200 ppm (in series [3]; in series [4]; in series [5]; in the series on Gaeumannomyces graminis; in the series on Fusarium culmorum) was at least 80% in each case.
On to `N#CC(Cc1cncnc1)c1ccc(C#CC2CC2)cc1` (centres unmarked) [Compound 2], for which the pest or weed control at 200 ppm in series [1], in series [6] and in series [2] was at least 80% each time. Further, the inhibition of growth at 200 ppm (in series [4]; in [5]; in the series on Gaeumannomyces graminis; with Fusarium culmorum) was at least 80% throughout.
With `Cc1cncc(CC(C#N)c2ccc(C#CC3CC3)cc2)c1` (centres unmarked) [Compound 3], the pest or weed control at 200 ppm in series [1] was at least 80%. The inhibition of growth at 200 ppm (in series [3]; in series [4]; in series [5]; in the series with Gaeumannomyces graminis; in the series with Fusarium culmorum) was at least 80% in each case.
With `OC(Cn1ccnc1)c1ccc(C#CC2CC2)cc1Cl` (centres unmarked) [Compound 5], the pest or weed control at 200 ppm in series [1], in series [6] and in [2] was at least 80% each time. The inhibition of growth at 200 ppm in series [3] and in [4] was at least 80% in each case.
As to `OC(Cn1ccnc1)(c1ccc(C#CC2CC2)cc1)C(F)(F)c1ccccn1` (centres unmarked) [Compound 6], the pest or weed control at 200 ppm in series [1], in series [6] and in series [2] was at least 80% in each case. In addition, the inhibition of growth at 200 ppm (in [3]; in [4]; in series [5]; in the series on Gaeumannomyces graminis) was at least 80% each time.
In the case of `OC(Cn1cncn1)(c1ccc(C#CC2CC2)cc1)C(F)(F)c1ccccn1` (centres unmarked) [Compound 7], the pest or weed control at 200 ppm in series [1], in series [6] and in series [2] was at least 80% throughout. Moreover, the inhibition of growth at 200 ppm (in series [3]; in series [4]; in series [5]; in the series on Gaeumannomyces graminis; in the series with Fusarium culmorum) was at least 80% each time.
On to `N#CC(Cc1cccnc1)c1ccc(C#CC2CC2)cc1F` (centres unmarked) [Compound 10], for which the pest or weed control at 200 ppm in series [1], in series [6] and in series [2] was at least 80% in each case. Moreover, the inhibition of growth at 200 ppm (in series [3]; in series [4]; in [5]; with Gaeumannomyces graminis; in the series with Fusarium culmorum) was at least 80% in each case.
`CC(C)C#Cc1ccc(C(O)(Cn2cncn2)C(F)(F)c2ccc(Cl)cn2)cc1` (centres unmarked) [Compound 11]: the melting point was in the range of 128 to 132 °C. Besides, the pest or weed control at 200 ppm in series [1] is at least 80%. In addition, the pest or weed control at 200 ppm in [6] is at least 80%. The pest or weed control at 200 ppm in series [2] is at least 80%. Also, the inhibition of growth at 200 ppm in [3] is at least 80%. In [4], the inhibition of growth at 200 ppm was at least 80%. Besides, the inhibition of growth at 200 ppm in series [5] is at least 80%. Further, the inhibition of growth at 200 ppm in the series with Gaeumannomyces graminis was at least 80%. Besides, the inhibition of growth at 200 ppm with Fusarium culmorum was at least 80%.
In turn, `CCCC#Cc1ccc(C(O)(Cn2cncn2)C(F)(F)c2ccc(Cl)cn2)cc1` (centres unmarked) [Compound 12] gave a melting point of 124 to 128 °C. The pest or weed control at 200 ppm in series [1] was at least 80%. Also, the pest or weed control at 200 ppm in series [6] is at least 80%. The pest or weed control at 200 ppm in [2] is at least 80%. For the same molecule, the inhibition of growth at 200 ppm in [3] is at least 80%. Besides, the inhibition of growth at 200 ppm in series [4] is at least 80%. In series [5], the inhibition of growth at 200 ppm was at least 80%. In addition, the inhibition of growth at 200 ppm with Gaeumannomyces graminis is at least 80%. The inhibition of growth at 200 ppm in the series with Fusarium culmorum is at least 80%.
`OC(Cn1cncn1)(c1ccc(C#CC2CC2)cc1)C(F)(F)c1ccc(Cl)cn1` (centres unmarked) [Compound 13] displayed a melting point of 88 to 94 °C. In series [1], the pest or weed control at 200 ppm was at least 80%. The pest or weed control at 200 ppm in series [6] was at least 80%. In [2], the pest or weed control at 200 ppm is at least 80%. In addition, the inhibition of growth at 200 ppm in [3] was at least 80%. The inhibition of growth at 200 ppm in series [4] is at least 80%. Moreover, the inhibition of growth at 200 ppm in series [5] was at least 80%. Further, the inhibition of growth at 200 ppm in the series with Fusarium culmorum was at least 80%.
